Where two headings read alike, the source gives them in different places.
Molecular target: T1, full-length human PRMT3 isoform 1 (GST-tagged) (Homo sapiens, UniProt O60678)
T1 construct: GST-tagged PRMT3; made in house; host or cells: E. coli BL21(DE3) Gold
Experiment: PRMT3 Biochemical Assay (3H-SAM Flashplate, peptide substrate)
From the text: General Materials. S-adenosylmethionine (SAM), S-adenosylhomocysteine (SAH), bicine, Tween20, dimethylsulfoxide (DMSO), bovine skin gelatin (BSG),), isopropyl-β-D-thiogalactopyranoside (IPTG), and Tris(2-carboxyethyl)phosphine hydrochloride solution (TCEP) were purchased from Sigma-Aldrich at the highest level of purity possible. ^3H-SAM was purchase from American Radiolabeled Chemicals with a specific activity of 80 Ci/mmol. 384-well streptavidin Flashplates were purchased from PerkinElmer.
Substrates. Peptide containing the classic RMT substrate motif was synthesized with an N-terminal linker-affinity tag motif and a C-terminal amide cap by 21st Century Biochemicals. The peptide was purified by high-performance liquid chromatography (HPLC) to greater than 95% purity and confirmed by liquid chromatography mass spectrometry (LC-MS). The sequence was Biot-Ahx-[…]-amide (SEQ ID NO.:11).
Molecular Biology: Full-length human PRMT3 (NM_005788.3) isoform 1 transcript clone was amplified from an HEK 293 cDNA library and subcloned into pGEX-KG (GE Life Sciences). The resulting construct encodes an N-terminal GST tag and a thrombin cleavage sequence ([…] […] […] […] S) (SEQ ID NO.:12) fused directly to Cys 2 of PRMT3.
Protein Expression. E. coli (BL21(DE3) Gold, Stratagene) made competent by the CaCl2) method were transformed with the PRMT3 construct and ampicillin selection. Protein over-expression was accomplished by growing the PRMT3 expressing E. coli clone and inducing expression with 0.3 mM IPTG at 16° C. The culture was grown for 12 hours, harvested by centrifugation, and stored at −80° C. for purification.
Protein Purification. […] GST-tagged PRMT3 was eluted with 50 mM Tris, 2 mM glutathione, pH 7.1 and 50 mM Tris, 20 mM glutathione, pH 7.1. Pooled fractions were dialysed in 20 mM Tris, 50 mM NaCl, 5% glycerol, 1 mM EDTA, 1 mM DTT, pH7.5 (Buffer B) and applied to a Q Sepharose Fast Flow column. GST-tagged PRMT3 was eluted by 500 mM NaCl in buffer B. Pooled fractions were dialyzed in 25 mM phosphate buffer, 100 mM NaCl, 5% glycerol, 2 mM DTT, pH 6.8 (Buffer C) and loaded on to a ceramic hydroxyapatite column. GST-tagged PRMT3 eluted with 25-400 mM phosphate in buffer C. Protein was concentrated and buffer was exchanged to 20 mM Tris, 150 mM NaCl, 5% glycerol, 5 mM β-mercaptoethanol, pH7.8 by ultrafiltration. The purity of recovered protein was 70%.
General Procedure for PRMT3 Enzyme Assays on Peptide Substrates. The assays were all performed in a buffer consisting of 20 mM Bicine (pH=7.6), 1 mM TCEP, 0.005% BSG, and 0.002% Tween 20, prepared on the day of use. Compounds in 100% DMSO (1 ul) were spotted into a polypropylene 384-well V-bottom plates (Greiner) using a Platemate Plus outfitted with a 384-channel head (Thermo Scientific). DMSO (1 ul) was added to Columns 11, 12, 23, 24, rows A-H for the maximum signal control and 1 ul of SAH, a known product and inhibitor of PRMT3, was added to columns 11, 12, 23, 24, rows I-P for the minimum signal control. A cocktail (40 ul) containing the PRMT3 enzyme was added by Multidrop Combi (Thermo-Fisher). The compounds were allowed to incubate with PRMT3 for 30 min at room temperature, then a cocktail (10 ul) containing SAM and peptide was added to initiate the reaction (final volume=51 ul). The final concentrations of the components were as follows: PRMT3 was 0.5 nM, ^3H-SAM was 100 nM, non-radiolabeled SAM was 1.8 uM, peptide was 330 nM, SAH in the minimum signal control wells was 1 mM, and the DMSO concentration was 2%. The assays were stopped by the addition of potassium chloride (10 ul) to a final concentration of 100 mM. 50 ul of the reaction in the 384-well polypropylene plate was then transferred to a 384-well Flashplate and the biotinylated peptides were allowed to bind to the streptavidin surface for at least 1 hour before being washed once with 0.1% Tween20 in a Biotek ELx405 plate washer. […]

T1 sequence (O60678 with tags, fused parts or gaps): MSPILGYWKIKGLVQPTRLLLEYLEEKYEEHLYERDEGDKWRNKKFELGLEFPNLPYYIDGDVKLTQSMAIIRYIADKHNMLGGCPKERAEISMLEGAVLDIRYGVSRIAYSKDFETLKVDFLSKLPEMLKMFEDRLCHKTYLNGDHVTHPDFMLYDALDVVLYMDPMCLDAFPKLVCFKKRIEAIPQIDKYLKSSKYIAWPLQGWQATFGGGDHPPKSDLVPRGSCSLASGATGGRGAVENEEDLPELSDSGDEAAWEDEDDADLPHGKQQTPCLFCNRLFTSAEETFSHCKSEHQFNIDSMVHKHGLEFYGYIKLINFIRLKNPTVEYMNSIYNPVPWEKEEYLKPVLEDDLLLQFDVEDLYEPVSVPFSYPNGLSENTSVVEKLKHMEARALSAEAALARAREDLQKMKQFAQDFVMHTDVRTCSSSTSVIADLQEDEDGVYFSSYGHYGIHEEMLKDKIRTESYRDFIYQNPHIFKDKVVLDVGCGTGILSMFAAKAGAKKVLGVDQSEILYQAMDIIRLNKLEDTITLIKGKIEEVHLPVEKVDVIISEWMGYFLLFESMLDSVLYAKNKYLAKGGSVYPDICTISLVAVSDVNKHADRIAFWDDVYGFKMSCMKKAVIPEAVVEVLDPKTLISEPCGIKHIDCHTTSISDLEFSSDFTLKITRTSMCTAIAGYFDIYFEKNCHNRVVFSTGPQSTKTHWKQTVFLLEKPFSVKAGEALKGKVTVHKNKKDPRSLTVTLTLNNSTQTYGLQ

- IC50: 3.01 to 10 µM
- IC50 (single experiment or average of multiple experiments): 8.93 µM
SMILES: CN(CCN)Cc1c[nH]nc1CCc1ccccc1 [Compound 9]

Reference: patent publication US11512053B2, “Arginine methyltransferase inhibitors and uses thereof” (priority 2013, dated 2022)
